Laboratory results from patent US20090197916A1, “SOLUBLE EPOXIDE HYDROLASE INHIBITORS FOR TREATMENT OF METABOLIC SYNDROME AND RELATED DISORDERS” (Arete Therapeutics, Inc, priority 2007, published 2009).
pIC50: −log10 of the molar value.

Legend:
[1] = tested on: over 100 cardiovascular disease related targets, including hydroxy-methylglutaryl-coenzyme A (HMO CoA) reductase; assay: off-target screen assays; details: concentration of 10 μM
apoE deficient mice = assay: Model 3: angiotensin II-infused apoE deficient mice with carotid ligation; format: in vivo
Procedure: All protocols were approved by the institutional animal care and use committee at Arête Therapeutics. Six-month old male apoE deficient mice (The Jackson Laboratory, Bar Harbor, Me.) fed a normal chow were used in this study. Baseline blood pressure and body weight were measured before surgery. Animals were anesthetized by inhalation of 2% isoflurane. The left common carotid artery carefully dissected via a midline neck incision under a dissecting microscope, and the left common carotid artery was ligated with a 6-0 silk ligature just proximal to its bifurcation. At the time of ligation, animals were subcutaneously implanted with a minipump (model 2004, Durect Corp., Cupertino, Calif.) filled with Ang II (1.44 mg/Kg/day, Phoenix Pharmaceuticals, Burlingame, Calif.). The animals were randomly divided into 2 groups; Vehicle: drinking water containing 5% hydroxypropyl-beta-cyclodextrin (HPBCD) or Compound 6: drinking water containing 1.5 mg/ml Compound 6 in 5% HPBCD. Each experimental group included 11 animals. After 4 weeks of Ang TI infusion, systolic blood pressure was measured in conscious mice using a tail-cuff system (Kent Scientific Corporation, Torrington, Conn.), and the animals were euthanized. Blood samples were collected via cardiac puncture for the measurement of a serum cholesterol profile (IDEXX Veterinary Services, West Sacramento, Calif.) and serum inflammatory panel (Murigenics, Hayward, Calif.) using a mouse cytokine/chemokine panel kit (Millipore, Billerica, Mass.), and tissues were removed for analysis.
All results are presented as the mean and standard error (SEM). Comparison between the vehicle and Compound 6 treatment groups was performed using Student's t test. The percentage of mice that developed AAA was compared between the two groups using X^2 test.

sEH [2] = biological target: T1, sEH (Homo sapiens, UniProt P34913); assay: sEH inhibition, fluorescent assay with CMNPC substrate (percent inhibition and IC50); format: biochemical; details: Concentration 2000 nM
T1 sequence (P34913 1-555): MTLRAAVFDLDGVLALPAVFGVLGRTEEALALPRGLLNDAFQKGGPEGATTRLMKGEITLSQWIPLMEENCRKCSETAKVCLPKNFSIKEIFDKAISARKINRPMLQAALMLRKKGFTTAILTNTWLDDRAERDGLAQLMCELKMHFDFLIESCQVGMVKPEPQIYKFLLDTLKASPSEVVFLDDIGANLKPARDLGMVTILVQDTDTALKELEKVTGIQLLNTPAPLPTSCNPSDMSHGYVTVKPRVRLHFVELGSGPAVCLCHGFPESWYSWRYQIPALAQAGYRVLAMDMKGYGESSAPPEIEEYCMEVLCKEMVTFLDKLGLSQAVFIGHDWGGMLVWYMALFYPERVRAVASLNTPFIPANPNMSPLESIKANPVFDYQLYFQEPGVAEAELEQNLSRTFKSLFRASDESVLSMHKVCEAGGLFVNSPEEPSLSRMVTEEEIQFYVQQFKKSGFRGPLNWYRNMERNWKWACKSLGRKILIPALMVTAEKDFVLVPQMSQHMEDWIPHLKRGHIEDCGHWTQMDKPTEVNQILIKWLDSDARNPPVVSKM
Procedure: The substrate for the reaction was:
Therefore, well A2 would refer to a well in the first row and second column of the plate.
In a black 96 well plate, all the wells are filled with 150 μL of buffer A (Buffer A: Bis/Tris HCl, 25 mM, pH 7.0 plus 0.1 mg/mL BSA). DMSO (2 microliters) was added in well A2 and A3, and then was added 2 μL of inhibitor solution in A1 and A4 through A12. […] The plate was incubated for 5 minutes in the plate reader at 30° C. During incubation, the working solution of substrate was prepared by mixing 3.68 mL of buffer A with 266 μL of 0.5 mM substrate solution. At t=0, 30 μL of working substrate solution was added and readings were started ([S]final: 5 μM).

whole blood sEH activity = biological target: T2, whole blood sEH activity (Mus musculus, UniProt P34914); assay: whole blood sEH activity in apoE KO mice, dosing with drinking water; format: in vivo; details: treatment with drinking water
T2 construct: from tissue; host or cells: whole blood of apoE KO mice
T2 sequence (P34914 1-554): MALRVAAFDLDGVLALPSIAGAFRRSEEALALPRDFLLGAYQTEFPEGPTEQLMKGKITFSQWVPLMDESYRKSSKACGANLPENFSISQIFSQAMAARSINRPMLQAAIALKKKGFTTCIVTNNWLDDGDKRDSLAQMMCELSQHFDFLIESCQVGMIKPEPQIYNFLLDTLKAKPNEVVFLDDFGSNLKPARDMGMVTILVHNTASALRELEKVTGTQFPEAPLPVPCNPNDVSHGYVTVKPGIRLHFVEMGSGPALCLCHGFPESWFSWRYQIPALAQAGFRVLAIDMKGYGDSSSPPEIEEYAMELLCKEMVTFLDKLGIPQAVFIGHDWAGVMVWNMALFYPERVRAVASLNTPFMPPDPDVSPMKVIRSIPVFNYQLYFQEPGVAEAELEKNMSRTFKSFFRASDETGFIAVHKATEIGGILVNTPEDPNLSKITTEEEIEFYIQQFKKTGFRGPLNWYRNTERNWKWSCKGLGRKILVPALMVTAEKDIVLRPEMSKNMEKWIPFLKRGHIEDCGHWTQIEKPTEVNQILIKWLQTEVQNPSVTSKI

sEH [3] = biological target: T1, sEH; assay: sEH enzymatic assay (Compound 6); format: biochemical; details: read-out: IC50 for inhibition of sEH, enzymatic assay
PPARγ = biological target: T3, PPARγ (Homo sapiens, UniProt P37231); assay: standard PPARγ activation assay; format: cell-based; details: relative to standard reference
T3 sequence (P37231 1-505): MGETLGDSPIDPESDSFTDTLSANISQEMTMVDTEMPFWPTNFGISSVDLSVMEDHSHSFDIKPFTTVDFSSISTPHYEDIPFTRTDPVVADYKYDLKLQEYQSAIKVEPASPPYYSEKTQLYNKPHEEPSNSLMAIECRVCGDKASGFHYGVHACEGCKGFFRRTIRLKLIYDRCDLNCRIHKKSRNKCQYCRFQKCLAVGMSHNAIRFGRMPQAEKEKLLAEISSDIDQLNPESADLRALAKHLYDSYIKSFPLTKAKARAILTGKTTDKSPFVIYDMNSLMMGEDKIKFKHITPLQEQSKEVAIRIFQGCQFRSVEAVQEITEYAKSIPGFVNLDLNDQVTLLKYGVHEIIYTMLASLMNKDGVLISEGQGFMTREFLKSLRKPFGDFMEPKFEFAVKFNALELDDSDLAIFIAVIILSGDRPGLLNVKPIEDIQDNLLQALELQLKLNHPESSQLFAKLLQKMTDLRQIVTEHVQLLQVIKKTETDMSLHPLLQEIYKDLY

sEH [4] = biological target: T1, sEH; assay: sEH cell based assay (Compound 6); details: read-out: IC50 for inhibition of sEH, cell based assay
pharmacokinetics in mice = format: in vivo; details: mouse, plasma

O=C(Nc1ccc(OC(F)(F)F)cc1)NC1CCN(C(=O)c2cccnc2)CC1 [Compound 6, 1-(1-nicotinoylpiperidin-4-yl)-3-(4-(trifluoromethoxy)phenyl)urea]
activity in off-target screen assays [1]: inactive | HDL levels compared to vehicle (apoE deficient mice; 4 weeks): significantly higher | effect on blood pressure, body weights, and food consumption (apoE deficient mice; 4 weeks): no statistical significant effect | ratio of LDL/HDL relative to vehicle group (apoE deficient mice; 4 weeks): only half of that in vehicle group | total cholesterol level compared to vehicle (apoE deficient mice; 4 weeks): significantly lower | triglyceride and glucose levels compared to vehicle (apoE deficient mice; 4 weeks): no significant difference | Ratio of LDL/HDL (apoE deficient mice; 4 weeks, vehicle 19.6 ± 1.5): 10.5 ± 1.5 | body weight (apoE deficient mice; 4 weeks, vehicle 27 ± 0.7): 28 ± 0.6 g | HDL (apoE deficient mice; 4 weeks, vehicle 32 ± 3): 46 ± 4 mg/dL | Blood Glucose (apoE deficient mice; 4 weeks, vehicle 216 ± 22): 185 ± 17 mg/dL | Triglyceride (apoE deficient mice; 4 weeks, vehicle 301 ± 59): 258 ± 47 mg/dL | LDL (apoE deficient mice; 4 weeks, vehicle 624 ± 70): 438 ± 28 mg/dL | Blood Pressure (mmHg) Baseline (apoE deficient mice; Baseline, before surgery and treatment): 101 ± 2 mmHg | Blood Pressure (mmHg) End (apoE deficient mice; End, after 4 weeks of Ang II infusion, vehicle 137 ± 3): 130 ± 4 mmHg | atherosclerosis progression and aneurysm formation (apoE deficient mice; apoE deficient mice chronically treated with Ang II): attenuated | inhibition at 2 µM (sEH [2]): 100% | average plasma concentration (whole blood sEH activity): 21 ± 1.8 µg/mL | pIC50 (sEH [3]): 8.80 | PPARγ activation relative to troglitzone (100%) (PPARγ): 11% | pIC50 (sEH [4]): 8.05 | bioavailability (pharmacokinetics in mice; AUC oral dose relative to AUC intravenous dose): > 100% | half-life (pharmacokinetics in mice; intravenous administration, read-out: terminal half life (converted)): ~4 h

CCCCCC1OC1C/C=C\C/C=C\C/C=C\CCCC(=O)O (centres unmarked) [14, 15 EET, reference compound]
PPARγ activation relative to troglitzone (100%) (PPARγ): 28%
